From ChEMBL document CHEMBL1145029, “Design, synthesis, and evaluation of benzothiadiazepine hydroxamates as selective tumor necrosis factor-alpha converting enzyme inhibitors” (J Med Chem, 2003) come the findings set out here.

The Ki is the dissociation constant of the complex between target and ligand, obtained from inhibition or displacement. A lower Ki goes with tighter binding. By IC50 is commonly meant the concentration at which inhibition is half-maximal. A low value points to inhibition by little substance.

Assay [1] addresses Matrix metalloproteinase-9 (Homo sapiens, UniProt P14780). The experiment in a line: In vitro inhibitory activity against broad spectrum matrix metalloprotease-9 (MMP-9).
Assay [2] addresses 72 kDa type IV collagenase (Homo sapiens, UniProt P08253).
Description: In vitro inhibitory activity against broad spectrum matrix metalloprotease-2 (MMP-2)
In a further assay the target is T1, Interstitial collagenase (Homo sapiens, UniProt P03956).
T1 sequence (P03956 whole entry): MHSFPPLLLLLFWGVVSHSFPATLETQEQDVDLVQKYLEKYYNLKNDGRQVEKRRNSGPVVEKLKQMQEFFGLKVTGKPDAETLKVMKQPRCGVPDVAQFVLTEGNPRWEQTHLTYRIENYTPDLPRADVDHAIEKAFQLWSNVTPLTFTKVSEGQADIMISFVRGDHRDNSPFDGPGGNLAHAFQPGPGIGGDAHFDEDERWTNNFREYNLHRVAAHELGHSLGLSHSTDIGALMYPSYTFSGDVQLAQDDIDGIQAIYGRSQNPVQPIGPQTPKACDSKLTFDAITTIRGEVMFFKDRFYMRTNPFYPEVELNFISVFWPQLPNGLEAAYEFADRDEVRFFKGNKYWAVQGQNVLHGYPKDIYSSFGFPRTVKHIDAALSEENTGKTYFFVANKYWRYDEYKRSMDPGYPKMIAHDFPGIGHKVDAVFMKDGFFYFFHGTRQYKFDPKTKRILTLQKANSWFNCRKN
The experiment in a line: In vitro inhibitory activity against broad spectrum matrix metalloprotease-1 (MMP-1).

Assay [3] has as its target T2, Disintegrin and metalloproteinase domain-containing protein 17 (Homo sapiens, UniProt P78536). The experiment in a line: Ability to suppress the formation of TNF-aplha in human peripheral blood mononuclear cell assay(PBMC). Type of assay: functional.
Assay [4] has as its target T2, Disintegrin and metalloproteinase domain-containing protein 17. The assay can be described thus: Ability to suppress the formation of TNF-aplha in human whole blood assay (WBA). It is filed as functional, tissue-based.

Bounds are passed on as bounds.

Chain of 72 kDa type IV collagenase (P08253 whole entry): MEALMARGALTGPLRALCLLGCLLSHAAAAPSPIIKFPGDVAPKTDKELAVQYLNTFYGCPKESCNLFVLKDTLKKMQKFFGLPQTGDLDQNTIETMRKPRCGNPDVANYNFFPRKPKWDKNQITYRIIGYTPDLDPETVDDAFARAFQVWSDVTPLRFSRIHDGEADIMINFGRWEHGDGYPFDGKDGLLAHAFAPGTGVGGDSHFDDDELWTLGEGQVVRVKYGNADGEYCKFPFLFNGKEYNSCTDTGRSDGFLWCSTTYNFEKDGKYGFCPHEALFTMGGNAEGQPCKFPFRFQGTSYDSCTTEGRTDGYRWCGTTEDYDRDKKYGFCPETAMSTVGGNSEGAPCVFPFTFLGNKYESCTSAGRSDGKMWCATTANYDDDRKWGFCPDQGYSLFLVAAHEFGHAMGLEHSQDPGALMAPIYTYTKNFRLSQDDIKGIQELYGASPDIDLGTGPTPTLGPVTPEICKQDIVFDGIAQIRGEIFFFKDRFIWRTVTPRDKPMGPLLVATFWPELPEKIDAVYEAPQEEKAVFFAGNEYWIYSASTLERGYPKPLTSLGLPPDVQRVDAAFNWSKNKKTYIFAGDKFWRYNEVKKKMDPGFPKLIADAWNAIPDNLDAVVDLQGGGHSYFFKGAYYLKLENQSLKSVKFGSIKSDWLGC
T2 sequence (P78536 whole entry, the tested form may be a part): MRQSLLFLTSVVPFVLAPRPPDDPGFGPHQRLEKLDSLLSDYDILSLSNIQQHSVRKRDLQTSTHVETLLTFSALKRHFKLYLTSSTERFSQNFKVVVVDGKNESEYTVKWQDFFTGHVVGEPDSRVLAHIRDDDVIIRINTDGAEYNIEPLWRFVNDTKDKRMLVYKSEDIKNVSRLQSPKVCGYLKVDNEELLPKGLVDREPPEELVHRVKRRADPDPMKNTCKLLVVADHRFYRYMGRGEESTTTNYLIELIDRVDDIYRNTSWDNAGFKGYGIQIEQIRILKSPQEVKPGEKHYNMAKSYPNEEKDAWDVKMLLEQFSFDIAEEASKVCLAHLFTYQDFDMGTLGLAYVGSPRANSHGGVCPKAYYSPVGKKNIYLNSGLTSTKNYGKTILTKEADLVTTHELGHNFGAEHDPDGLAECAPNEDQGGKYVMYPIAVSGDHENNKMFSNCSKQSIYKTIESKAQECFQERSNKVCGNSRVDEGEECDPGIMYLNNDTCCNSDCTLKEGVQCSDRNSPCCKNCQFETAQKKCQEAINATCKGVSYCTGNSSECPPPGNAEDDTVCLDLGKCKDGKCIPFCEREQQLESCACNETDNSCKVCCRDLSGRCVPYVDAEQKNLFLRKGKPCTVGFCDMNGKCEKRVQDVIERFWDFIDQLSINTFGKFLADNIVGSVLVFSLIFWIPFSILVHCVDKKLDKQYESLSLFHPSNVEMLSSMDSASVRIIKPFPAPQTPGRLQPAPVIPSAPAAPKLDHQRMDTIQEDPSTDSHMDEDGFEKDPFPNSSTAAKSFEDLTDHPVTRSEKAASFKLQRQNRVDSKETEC
Chain of Matrix metalloproteinase-9 (P14780 whole entry): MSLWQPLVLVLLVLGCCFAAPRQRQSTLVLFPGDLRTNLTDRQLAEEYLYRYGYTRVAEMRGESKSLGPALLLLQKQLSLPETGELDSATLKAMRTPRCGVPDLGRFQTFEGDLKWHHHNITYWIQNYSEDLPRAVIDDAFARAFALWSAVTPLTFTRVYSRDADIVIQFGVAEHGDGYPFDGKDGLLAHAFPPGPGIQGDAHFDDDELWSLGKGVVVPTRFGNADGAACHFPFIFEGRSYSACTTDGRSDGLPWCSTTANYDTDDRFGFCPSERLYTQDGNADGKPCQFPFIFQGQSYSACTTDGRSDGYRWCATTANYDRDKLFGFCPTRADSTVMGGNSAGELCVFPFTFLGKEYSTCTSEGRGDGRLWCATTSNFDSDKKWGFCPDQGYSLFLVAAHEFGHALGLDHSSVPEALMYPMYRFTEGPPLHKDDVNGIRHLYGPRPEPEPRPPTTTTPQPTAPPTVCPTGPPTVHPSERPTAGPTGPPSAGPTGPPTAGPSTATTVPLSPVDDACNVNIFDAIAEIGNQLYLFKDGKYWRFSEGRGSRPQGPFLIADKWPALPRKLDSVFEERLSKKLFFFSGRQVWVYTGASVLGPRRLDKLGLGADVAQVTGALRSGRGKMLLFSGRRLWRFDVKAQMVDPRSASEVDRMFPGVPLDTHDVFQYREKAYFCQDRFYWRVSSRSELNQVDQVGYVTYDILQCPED

Turning to `C[C@H](C(=O)NO)N1CCNc2cc(Oc3ccc(-c4ccccc4)cc3)ccc2S1(=O)=O`, the Ki was less than 2.1 nM in assay [1], less than 2.8 nM in assay [2] and 2020 nM at Interstitial collagenase.
In the case of `COC(=O)CCC[C@H](C(=O)NO)N1CCNc2cc(OCc3cc(OC)cc(OC)c3)ccc2S1(=O)=O`, the Ki was greater than 2130 nM in assay [1], 332 nM in assay [2] and greater than 4950 nM at Interstitial collagenase. The molecule further yielded an IC50 in assay [3] of 900 nM.
Turning to `COc1cc(COc2ccc3c(c2)NCCN([C@@H](C(=O)NO)C(C)C)S3(=O)=O)cc(OC)c1`, the Ki in assay [1] was 981 nM; in assay [2] it was 647 nM; at Interstitial collagenase it was greater than 4950 nM. Further, in assay [3], the IC50 stood at 4000 nM.
With `CC(C)C[C@H](C(=O)NO)N1CCNc2cc(O)ccc2S1(=O)=O`, the Ki stood at 80 nM in assay [1], 11 nM in assay [2] and 479 nM at Interstitial collagenase. Further, half-maximal inhibition in assay [3] (IC50) required 9500 nM.
In the case of `C[C@H](C(=O)NO)N1CCNc2cc(Oc3ccccc3)ccc2S1(=O)=O`, the results for the Ki (in assay [1]; in assay [2]; at Interstitial collagenase) were 3 nM, 23 nM and greater than 4950 nM, respectively.
In the case of `COc1cc(CNc2ccc3c(c2)NCCN([C@H](CC(C)C)C(=O)NO)S3(=O)=O)cc(OC)c1`, the inhibition constant (Ki) in assay [1] is 347 nM; in assay [2], 75 nM; on Interstitial collagenase, greater than 4950 nM.
The like results for `COc1ccc2c(c1)NCCN(CC(=O)NO)S2(=O)=O` were, in that order, greater than 2130 nM, 1500 nM and greater than 4950 nM.
In the same order, the values of `COc1ccc(Oc2ccc3c(c2)NCCN([C@H](C)C(=O)NO)S3(=O)=O)cc1` are less than 2.1 nM, less than 2.8 nM and greater than 4950 nM.
In the case of `C[C@H](C(=O)NO)N1CCNc2cc(OCc3ccccc3)ccc2S1(=O)=O`, the Ki is 3.6 nM in assay [1], less than 2.8 nM in assay [2] and greater than 4950 nM at Interstitial collagenase.
Consider `COc1cc(COc2ccc3c(c2)NCCN([C@H](CCCCNS(C)(=O)=O)C(=O)NO)S3(=O)=O)cc(OC)c1`, for which the Ki in assay [1] is greater than 2130 nM; in assay [2], 391 nM; at Interstitial collagenase, greater than 4950 nM. Further, the IC50 is 1900 nM in assay [3] and 38000 nM in assay [4].
In the same order, the values of `CCOc1cc(COc2ccc3c(c2)NCCN([C@H](CCCC(=O)OC)C(=O)NO)S3(=O)=O)cc(OCC)c1` are greater than 2130 nM, 1380 nM, greater than 4950 nM, 1100 nM and 24000 nM.
In the case of `C[C@H](C(=O)NO)N1CCNc2cc(O)ccc2S1(=O)=O`, the Ki in assay [1] is 100 nM; in assay [2], less than 2.8 nM; on Interstitial collagenase it was 980 nM.
With `COc1ccc2c(c1)NCCN([C@@H](C(=O)NO)C(C)C)S2(=O)=O`, the Ki stood at 751 nM in assay [1], 52 nM in assay [2] and 732 nM at Interstitial collagenase.
For the molecule `C[C@H](C(=O)NO)N1CCNc2cc(-c3ccccc3)ccc2S1(=O)=O`, the Ki in assay [1] was 8 nM; in assay [2], less than 2.8 nM; on Interstitial collagenase, 272 nM.
`C[C@H](C(=O)NO)N1CCNc2cc(Oc3ccc(C(F)(F)F)cc3)ccc2S1(=O)=O`: the values for the inhibition constant (Ki) (in assay [1]; in assay [2]; at Interstitial collagenase) were 7 nM, less than 2.8 nM and greater than 4950 nM, respectively. Moreover, the IC50 in assay [3] amounted to 840 nM.
Consider `CCOc1cc(COc2ccc3c(c2)NCCN([C@@H](C(=O)NO)C(C)C)S3(=O)=O)cc(OCC)c1`, for which the Ki was greater than 2130 nM in assay [1], 3000 nM in assay [2] and greater than 4950 nM on Interstitial collagenase. Moreover, in assay [3], the IC50 amounted to 8200 nM.
As for `COc1cc(COc2ccc3c(c2)NCCN([C@H](C)C(=O)NO)S3(=O)=O)cc(OC)c1`, the Ki is greater than 2130 nM in assay [1], 491 nM in assay [2] and greater than 4950 nM at Interstitial collagenase. Moreover, the IC50 came out at 770 nM in assay [3] and 28000 nM in assay [4].
`C[C@H](C(=O)NO)N1CCNc2cc(Oc3ccc([N+](=O)[O-])cc3)ccc2S1(=O)=O`: the Ki is 19 nM in assay [1], 8 nM in assay [2] and greater than 4950 nM on Interstitial collagenase. In addition, the IC50 amounted to 1200 nM in assay [3] and 15000 nM in assay [4].
For `CCOc1cc(COc2ccc3c(c2)NCCN([C@H](CCC(=O)OC)C(=O)NO)S3(=O)=O)cc(OCC)c1`, the Ki is greater than 2130 nM in assay [1], 960 nM in assay [2] and greater than 4950 nM on Interstitial collagenase. This molecule also showed an IC50 in assay [3] of 6200 nM.
As for `O=C(CN1CCNc2ccccc2S1(=O)=O)NO`, the results for the Ki (in assay [1]; in assay [2]; at Interstitial collagenase) were greater than 2130 nM, 1920 nM and greater than 4950 nM, respectively.
As for `CCOc1cc(COc2ccc3c(c2)NCCN([C@H](C)C(=O)NO)S3(=O)=O)cc(OCC)c1`, the Ki in assay [1] is greater than 2130 nM; in assay [2], 690 nM; at Interstitial collagenase, greater than 4950 nM. This molecule had a half-inhibitory concentration (IC50) in assay [3] of 4500 nM.
For the molecule `COc1cc(COc2ccc3c(c2)NCCN([C@H](CCCCN)C(=O)NO)S3(=O)=O)cc(OC)c1`, the Ki in assay [1] was greater than 2130 nM; in assay [2] it was 231 nM; at Interstitial collagenase, greater than 4950 nM.
On to `Cc1nc(COc2ccc3c(c2)NCCN([C@@H](C(=O)NO)C(C)C)S3(=O)=O)sc1C`, for which the Ki was greater than 2130 nM in assay [1], 361 nM in assay [2] and greater than 4950 nM on Interstitial collagenase. In assay [3], 24500 nM corresponded to half-maximal inhibition (IC50).
As to `C[C@H](C(=O)NO)N1CCNc2cc(Oc3cccc([N+](=O)[O-])c3)ccc2S1(=O)=O`, the results for the Ki (in assay [1]; in assay [2]; on Interstitial collagenase) were 96 nM, 85 nM and greater than 4950 nM, respectively. Besides, the IC50 in assay [3] came out at 470 nM; in assay [4], 1400 nM.
In the case of `C[C@H](C(=O)NO)N1CCNc2cc(OCc3cc(Cl)cc(Cl)c3)ccc2S1(=O)=O`, the Ki is 1210 nM in assay [1], 49 nM in assay [2] and greater than 4950 nM at Interstitial collagenase. The molecule also came in with an IC50 in assay [3] of 940 nM.
On to `Cc1cc(C)cc(COc2ccc3c(c2)NCCN([C@H](C)C(=O)NO)S3(=O)=O)c1`, for which the results for the Ki (in assay [1]; in assay [2]; on Interstitial collagenase) were greater than 2130 nM, 136 nM and greater than 4950 nM, respectively.
Consider `COc1ccc2c(c1)NCCN([C@H](C)C(=O)NO)S2(=O)=O`, for which the Ki was determined as 104 nM in assay [1] and 1060 nM on Interstitial collagenase.
For `Cc1cc(C)cc(C(=O)Nc2ccc3c(c2)NCCN([C@H](C)C(=O)NO)S3(=O)=O)c1`, the Ki in assay [1] is 993 nM; in assay [2], 94 nM; on Interstitial collagenase, greater than 4950 nM.
As for `C[C@H](C(=O)NO)N1CCNc2cc(-c3ccccc3C(F)(F)F)ccc2S1(=O)=O`, the Ki was greater than 2130 nM in assay [1], 2520 nM in assay [2] and greater than 4950 nM on Interstitial collagenase.
For the molecule `COc1cc(COc2ccc3c(c2)NCCN([C@H](CC(C)C)C(=O)NO)S3(=O)=O)cc(OC)c1`, the Ki in assay [1] is greater than 2130 nM; in assay [2], 154 nM; at Interstitial collagenase it was greater than 4950 nM. Also, in assay [3], half-maximal inhibition (IC50) required 5400 nM.
`C[C@H](C(=O)NO)N1CCNc2ccccc2S1(=O)=O`: the Ki in assay [1] was 567 nM; in assay [2], 75 nM; on Interstitial collagenase it was greater than 4950 nM.
Take `COc1ccc2c(c1)NCN([C@H](C)C(=O)NO)S2(=O)=O`: the Ki in assay [1] was 1050 nM; in assay [2], 312 nM; at Interstitial collagenase it was greater than 4950 nM.
With `CC(C)C[C@H](C(=O)NO)N1CCNc2cc(OCc3ccccc3)ccc2S1(=O)=O`, the Ki in assay [1] was less than 2.1 nM; in assay [2], less than 2.8 nM; on Interstitial collagenase, 548 nM. The same molecule had an IC50 in assay [3] of 350 nM.
Turning to `COC(=O)CC[C@H](C(=O)NO)N1CCNc2cc(OCc3cc(OC)cc(OC)c3)ccc2S1(=O)=O`, the results for the Ki (in assay [1]; in assay [2]; at Interstitial collagenase) were greater than 2130 nM, 1590 nM and greater than 4950 nM, respectively. The IC50 in assay [3] was 7200 nM.
In the case of `Cc1cc(COc2ccc3c(c2)NCCN([C@H](C)C(=O)NO)S3(=O)=O)cc(C)n1`, the Ki in assay [1] was 1840 nM; in assay [2], 75 nM; on Interstitial collagenase it was greater than 4950 nM. The IC50 in assay [3] is 2900 nM.
Consider `COc1cc(COc2ccc3c(c2)NCCN([C@H](CCCCNC(=O)OC(C)(C)C)C(=O)NO)S3(=O)=O)cc(OC)c1`, for which the Ki is 118 nM in assay [1], 32 nM in assay [2] and greater than 4950 nM on Interstitial collagenase.
